This passage reports EC (max) results from patent publication US9611268B2, “Modulators of toll-like receptor 7” (Gilead Sciences, Inc., priority 2007, dated 2017).

In the assay the test system is human Peripheral Blood Mononuclear Cell (PMBC). Briefly: PBMC Assay, cytokine stimulation (IFNα). The format is cell-based. The following applies: concentration at which the compound stimulated maximum IFN α production, 24 hours, read-out: IFN ECmax values. How it is done:
Assays were conducted to determine cytokine stimulation at 24 hours from human Peripheral Blood Mononuclear Cell (PMBC) using the compounds of the present invention. The assays were run in duplicate, with 8-point, half-log dilution curves. The compounds of the present invention were diluted from […] DMSO solution. Cell supernatants are assayed directly for IFNα and 1:10 dilution for TNFα. The assays were performed in a similar fashion as described in Bioorg. Med. Chem. Lett. 16, 4559, (2006). Specifically, cryo-preserved PBMCs were thawed and seeded 96 well plates with 750,000 cells/well in 190 μL/well cell media. The PBMCs were then incubated for 1 hour at 37° C. at 5% CO2. Then, the compounds of the present invention were added in 10 μL cell media at 8 point, half-log dilution titration. The plates were incubated at 37° C. and 5% CO2 for 24 hours and then spinned at 1200 rpm for 10 min, which was followed by collecting supernatant and storing the same at −80° C. Cytokine secretion was assayed with Luminex and Upstate multi-plex kits, using a Luminex analysis instrument. IFN ECmax value for a compound was the concentration at which the compound stimulated maximum IFN α production as determined using the assay method above.
In the case of `COCCOc1nc(N)c2nc(O)n(Cc3cccc(CN4CCN(C)CC4)c3)c2n1` [Example C, 6-Amino-2-(2-methoxy-ethoxy)-9-[3-(4-methyl-piperazin-1-ylmethyl)-benzyl]-9H-purin-8-ol], the EC (max) is less than 0.005 µM.
The value for `Nc1nc(OC2CCCC2)nc2c1nc(O)n2Cc1cccc(CN2CCCC2)c1` [Example BM] was less than 0.005 µM; that for `COCCOc1nc(N)c2nc(O)n(Cc3cccc(CN4CCC4)c3)c2n1` [Example N, 9-(3-(azetidin-1-ylmethyl)benzyl)-6-amino-2-(2-methoxyethoxy)-9H-purin-8-ol] was less than 0.005 µM; that for `COCCOc1nc(N)c2nc(O)n(Cc3cccc(CNCC4CC4)c3)c2n1` [Example D, 6-Amino-9-{3-[(cyclopropylmethyl-amino)-methyl]-benzyl}-2-(2-methoxy-ethoxy)-9H-purin-8-ol] was less than 0.005 µM.
For `Nc1nc(OCCC2CC2)nc2c1nc(O)n2Cc1cccc(CN2CCCC2)c1` [Example AU] the value was less than 0.005 µM.
For `CCCCOc1nc(N)c2nc(O)n(Cc3cccc(CN4CCC4)c3)c2n1` [Example BE] the value was less than 0.005 µM; for `COCCOc1nc(N)c2nc(OC(=O)OC(C)C)n(Cc3cccc(CN4CCCC4)c3)c2n1` [Example R, 9-(3-(pyrrolidin-1-ylmethyl)benzyl)-6-amino-2-(2-methoxyethoxy)-9H-purin-8-yl isopropyl carbonate], less than 0.005 µM; for `COCCOc1nc(N)c2nc(O)n(Cc3cccc(CN4CC(C)CC(C)C4)c3)c2n1` (stereo not shown) [Example F, 6-Amino-9-[3-(3,5-dimethyl-piperidin-1-ylmethyl)-benzyl]-2-(2-methoxy-ethoxy)-9H-purin-8-ol], less than 0.005 µM.
With `COCCOc1nc(N)c2nc(O)n(Cc3cccc(CNCC4CCCCC4)c3)c2n1` [Example AZ], the EC (max) was less than 0.005 µM.
The value for `Nc1nc(OCC2CC2)nc2c1nc(O)n2Cc1cccc(CN2CCCC2)c1` [Example AW] was less than 0.005 µM.
For `COCCOc1nc(N)c2nc(O)n(Cc3cccc(CN4CCCC4)c3)c2n1` [Example A, 6-Amino-2-(2-methoxy-ethoxy)-9-(3-pyrrolidin-1-ylmethyl-benzyl)-9H-purin-8-ol] the value was less than 0.005 µM; for `Nc1nc(OCCC(F)(F)F)nc2c1nc(O)n2Cc1cccc(CN2CCCC2)c1` [Example BH], less than 0.005 µM.
For `COCCOc1nc(N)c2nc(O)n(Cc3cc(CN4CCCC4)cc(C(F)(F)F)c3)c2n1` [Example AQ], the EC (max) is less than 0.005 µM.
As to `COCCOc1nc(N)c2nc(O)n(Cc3cc(CN4CCCCC4)cc(C(F)(F)F)c3)c2n1` [Example AS], the EC (max) was less than 0.005 µM.
For `COCCOc1nc(N)c2nc(O)n(Cc3cccc(CN4CCCCC4)c3)c2n1` [Example J, 6-Amino-2-(2-methoxy-ethoxy)-9-(3-piperidin-1-ylmethyl-benzyl)-9H-purin-8-ol] the value was less than 0.005 µM; for `Nc1nc(OCC2CCC2)nc2c1nc(O)n2Cc1cccc(CN2CCCC2)c1` [Example AV], less than 0.005 µM.
